# Measured values taken from patent publication US20130281409A1, “Myelin Sheath Fatty Acids that Resolve Neuroinflammation” (priority 2012, published 2013).
# Like-named read-outs stand apart in the source and are kept apart here.
# How the values were obtained:
# [1] = tested on: azPC-mediated inhibition of MBP Ac1-11 specific T cell proliferation; assay: Phospholipase inhibitor effect on azPC-mediated inhibition of T cell proliferation; type: cell-based, mouse; settings: about 40 min pre-incubation with inhibitor, 2 μg/ml MBPAc1-11, 30 μg/ml azPC, 48 hours
# Procedure: 5×10^6 cells/ml were pre-incubated in complete RPMI media for about 40 min at 37° C. with 5% CO2, in the presence of the corresponding vehicle (DMSO or 100% ethanol) or a phospholipase inhibitor: OBAA (500 nM, Tocris Bioscience), U 73122 (500 nM, Tocris Bioscience), 525143 (5 μM, EMD, Calbiochem), FKGK 11 (50 μM, Caymen Chemical), YM 26734 (250 μM, Tocris Bioscience), LY 311727 (500 μM, Tocris Bioscience), CAY10590 (200 μM, Caymen Chemical), 525145 (5 μM, EMD, Calbiochem). Afterwards, the splenocytes were plated in triplicate and stimulated in vitro with 2 μg/ml of MBPAc1-11 in the presence of 30 μg/ml azPC for 48 hours. Proliferation response is the ratio of the average triplicate wells of MBP+azPC divided by the average triplicate wells of MBP, or MBP divided by MBP.
# [2] = tested on: MBPAc1-11-TCR transgenic splenocytes; assay: MBPAc1-11-specific T-cell proliferation (3H-thymidine incorporation); type: cell-based, mouse; settings: fatty-acid side-chain analogs, various concentrations
# Procedure: (§1) Splenocytes were harvested from mice transgenic for the MBPAc1-11-specific T-cell receptor and stimulated with 2 μg/ml of MBPAc1-11 in the presence of 30 μg/ml of lipid. Lymph nodes and spleens were also harvested from naive C57BL/6 mice, and CD3^+ T-cell enrichment columns (R&D systems) were used to isolate CD3^+ T cells. The purified CD3^+ T cells were stimulated with 5 μg/ml of plate-bound anti-CD3 antibodies and anti-CD28 antibodies in the presence of 30 μg/ml of POPS, PGPC, azPC ester, brain sulfatides, or azPC, 0.25 mM palmitic acid, or 100% ethanol (as the vehicle control). For assessment of proliferation, 1 μCi of ^3H-thymidine was added to each well for the final 18-24 hours of culture, and incorporation of radioactivity was measured by using a Betaplate scintillation counter. Cytokine assays were performed on culture supernatants after 24 (IL-12p40) or 48 hours (IFN-γ, IL-6, and TNF) of culture by using the BD OptEIA™ Mouse ELISA kits (BD Biosciences).
# 5×10^6 cells/ml were stimulated in vitro with 2 μg/ml of MBPAc1-11 in the presence of various concentrations of palmitic acid (Sigma), other lipids, or 100% Ethanol (vehicle alone).
# For assessment of proliferation, 1 μCi of ^3H-thymidine was added to each well for the final 18 hours of culture, and incorporation of radioactivity was quantified using a Betaplate scintillation counter.
# [3] = tested on: EAE in PLP139-151-immunized SJL/J mice; assay: EAE, lipid or palmitic-acid treatment of established disease; type: in vivo, mouse
# Procedure: Animal experiments were approved by, and performed in compliance with, the National Institute of Health guidelines of the Institutional Animal Care and Use Committee at Stanford University. For induction of EAE, 8- to 12-week-old female SJL/J mice (Jackson Laboratory) were immunized subcutaneously with 100 μg of PLP139-151 emulsified in CFA (Difco Laboratories). Lipid and palmitic-acid treatment: Administration of lipid, palmitic acid, or vehicle was initiated once the PLP139-151-immunized mice developed paralysis (representing clinical EAE) and repeated every other day, for a total of ten separate injections. 100 μg of POPS, PGPC, azPC ester, azPC, palmitic acid, or vehicle (0.05% Tween-20 in PBS) was administered in 0.2 ml intravenously in the tail. EAE treatment with lipid: 100 μg of PGPC or sphingomyelin or vehicle ([…] Tween-20 in PBS) was administered in 0.2 ml intravenously in the tail. Treatment with lipid or vehicle was initiated once the PLP139-151-immunized mice developed paralysis (representing clinical EAE) and repeated 3, 6, 12, and 18 days later, for a total of five separate injections.
# CD3+ T cells [4] = assay: Proliferation of anti-CD3/anti-CD28-stimulated purified T cells; type: cell-based, mouse; settings: anti-CD3 and anti-CD28, 0.25 mM palmitic acid, 48 h
# Procedure: Splenocytes were harvested from mice transgenic for the MBPAc1-11-specific T-cell receptor and stimulated with 2 μg/ml of MBPAc1-11 in the presence of 30 μg/ml of lipid. Lymph nodes and spleens were also harvested from naive C57BL/6 mice, and CD3^+ T-cell enrichment columns (R&D systems) were used to isolate CD3^+ T cells. […] Cytokine assays were performed on culture supernatants after 24 (IL-12p40) or 48 hours (IFN-γ, IL-6, and TNF) of culture by using the BD OptEIA™ Mouse ELISA kits (BD Biosciences). Cd1d^−/− T cells: We harvested splenocytes from Cd1d^−/− mice and their wild-type littermates and used CD3^+ T-cell enrichment columns (R&D systems) to isolate T cells. […] Anti-CD3/anti-CD28-stimulated purified T cells: We harvested lymph nodes and spleens from naive C57BL/6 mice and used CD3^+ T-cell enrichment columns (R&D systems) to isolate CD3^+ T cells.
# CD3+ T cells [5] = assay: Cytokine production of anti-CD3/anti-CD28-stimulated purified T cells; type: cell-based, mouse; settings: anti-CD3 and anti-CD28, 0.25 mM palmitic acid, 48 h
# Procedure: as §1
# Anti-CD3/anti-CD28-stimulated purified T cells: We harvested lymph nodes and spleens from naive C57BL/6 mice and used CD3^+ T-cell enrichment columns (R&D systems) to isolate CD3^+ T cells. We then stimulated 1×10^6 cells/ml of T cells with 5 μg/ml of plate-bound anti-CD3 antibodies plus anti-CD28 antibodies in the presence of 30 μg/ml of POPS, PGPC, azPC ester, brain sulfatides, or azPC, […], or 100% ethanol (as the vehicle control).
# Cytokine production by cells from the lymph nodes and spleens of PGPC co-immunized mice was measured after 66 hours of stimulation by using the BD OptEIA™ Mouse IFN-γ ELISA kit (BD Biosciences). Cytokine assays for the anti-CD3/anti-CD28 antibody-stimulated T cells and PLP139-151-stimulated splenocytes were performed on culture supernatants after 48 hours of stimulation using the BD OptEIA™ Mouse IL-6, IFN-γ, and TNF alpha ELISA kits (BD Biosciences) and the Mouse IL-17 DuoSet ELISA Development kit (R&D Systems).
# [6] = tested on: CD3+ T cells (gated on CD4+ T cells); assay: T-cell apoptosis, Annexin V and 7AAD staining; type: cell-based, mouse; settings: 0.25 mM palmitic acid, anti-CD3 and anti-CD28, 48 h
# Procedure: FIG. 5. […] (C) TUNEL staining of brain and spinal-cord tissue from mice immunized with PLP139-151 peptide (to induce EAE) and treated for 12 h with azPC, POPS, or vehicle on day 15 after immunization. […] (D) Quantification of TUNEL-positive infiltrating cells in brain and spinal cord shown in panel (C). Cells were stained according to standard protocols, run on a FACScan flow cytometer (BD Biosciences), and analysed with CellQuest software (BD Immunocytometry Systems). The antibody conjugate used was FITC anti-CD4, clone GK1.5 (BD Pharmingen). 7AAD staining was performed by using the Annexin V-PE Apoptosis Detection Kit I (BD Pharmingen). Cells were stained according to standard protocols, run on a FACScan flow cytometer (BD Biosciences), and analysed with CellQuest software (BD Immunocytometry Systems) or with FlowJo software version 6.3.2 (Tree Star, Inc.).
# [7] = tested on: EAE in PLP139-151-immunized SJL/J mice; assay: EAE, lipid administered prophylactically (co-immunization with PLP139-151); type: in vivo, mouse; settings: 6 μg/injection; s.c. with PLP139-151 on day 0, i.p. on days 4 and 7
# Procedure: Animal experiments were approved by, and performed in compliance with, the National Institute of Health guidelines of the Institutional Animal Care and Use Committee at Stanford University. For induction of EAE, 8- to 12-week-old female SJL/J mice (Jackson Laboratory) were immunized subcutaneously with 100 μg of PLP139-151 emulsified in CFA (Difco Laboratories). Three injections of PGPC (6 μg/mouse/injection) or vehicle (0.05% Tween-20 in PBS) were delivered on days 0, 4, and 7 after immunization with PLP139-151. On day 0, the lipid or vehicle was emulsified together with PLP139-151 in CFA and administered by subcutaneous injection. At subsequent time points, lipid or vehicle was injected intraperitoneally. EAE was assessed as previously described. To induce EAE in SJL/J mice (Jackson Mice), we immunized 8- to 12-week-old female animals subcutaneously with 100 μg of PLP139-151 emulsified in CFA (Difco Laboratories). Prophylactic administration of lipid: Three injections of PGPC or sphingomyelin (6 μg/mouse/injection) or vehicle (0.05% Tween-20 in PBS) were delivered on days 0, 4, and 7 after immunization with PLP139-151. […] Clinical disease was monitored daily using the following scoring system: 0, no disease; 1, limp tail; 2, hind limb weakness; 3, hind limb paralysis; 4, hind limb and forelimb paralysis; 5, death. […]
# [8] = tested on: EAE in PLP139-151-immunized SJL/J mice; settings: prophylactic regimen, previously tested by the applicant, cited from earlier work
# [9] = tested on: NF-κB and ERK pathways, Bcl-2 family proteins; assay: Immunoblot of inflammatory, survival and apoptotic signaling in anti-CD3/anti-CD28-stimulated T cells; type: cell-based, mouse; settings: 30 μg/ml lipid, 15 min or 24 h
# Procedure: CD3^+ T cells were isolated from the lymph nodes of naïve C57BL/6 mice by using CD3^+ T-cell enrichment columns (R&D systems). […] Cells were washed with ice-cold PBS and lysed in RIPA lysis buffer containing 1X Halt protease and phosphatase inhibitor cocktail (Pierce) with a Dounce homogenizer. Immunoblotting was performed with antibodies against phospho-Bim ([…]), phospho-Bad ([…]), phospho-Bcl-2 ([…]), phospho-IKKα/β (serines 180/181), phospho-p65 ([…]), phospho-ERK1/2 […]), and IκBα from Cell Signaling Technology.
molecule,measurement,setting,value
CCCC[C@H](CCC(=O)O)NC(=O)CCCCCCc1ccccc1 [CAY10950],Effect on azPC (azPC-mediated inhibition of MBP-specific T cell proliferation),[1],Inhibited
O=C(CCCCc1ccccc1)C(F)(F)C(F)(F)F [FKGK 11],Effect on azPC (azPC-mediated inhibition of MBP-specific T cell proliferation),[1],No effect
CCc1c(CC(N)=O)c2cc(OCCCP(=O)(O)O)ccc2n1Cc1ccccc1 [LY 311727],Effect on azPC (azPC-mediated inhibition of MBP-specific T cell proliferation),[1],Inhibited
COc1ccc2c(c1)CC[C@@H]1[C@@H]2CC[C@]2(C)[C@@H](NCCCCCCN3C(=O)C=CC3=O)CC[C@@H]12 [U 73122],Effect on azPC (azPC-mediated inhibition of MBP-specific T cell proliferation),[1],No effect
CCCCCCCCCCCC(=O)c1c(O)c(C(=O)CCCCCCCCCCC)c(O)c(C2CC(c3ccc(O)cc3)Oc3cc(O)ccc32)c1O (stereo not drawn) [YM 26734],Effect on azPC (azPC-mediated inhibition of MBP-specific T cell proliferation),[1],Inhibited
CCCCCCCC(=O)OC [methyl octanoate],concentration at which T-cell proliferation was suppressed,[2],10 mM
CCCCCCCC(=O)O [octanoic acid],concentration at which T-cell proliferation was suppressed,[2],5 mM
CCCCCCCCCCCCCCCC(=O)O [palmitic acid],EAE course after treatment was halted,"[3]; 100 μg i.v. every other day, then stopped",disease relapsed
same,"EAE severity, established disease","[3]; 100 μg i.v. once paralysis developed, every other day, ten injections",attenuated EAE
same,T-cell proliferation,CD3+ T cells [4],suppressed T-cell proliferation as effectively as the phospholipids
same,T-cell production of IFN-γ,CD3+ T cells [5],suppressed
same,T-cell production of IL-6,CD3+ T cells [5],suppressed
same,T-cell production of IL-17,CD3+ T cells [5],suppressed
same,T-cell production of TNF,CD3+ T cells [5],suppressed
same,concentration at which T-cell proliferation was suppressed,[2],0.1 mM
same,T-cell apoptosis,[6],induced T-cell apoptosis
Sphingomyelin [reference compound],"EAE severity, established disease","[3]; 100 μg i.v. from disease onset (10 days after immunization), five injections",exacerbated EAE
same,EAE severity (clinical score),[7],attenuated EAE
sulfatide [reference compound],EAE severity,[8],exacerbated EAE
same,EAE severity,[8]; listed as sulfatides,worsened EAE
same,CD3/CD28-induced activation of the NF-κB and ERK pathways,[9],neither inhibited
